Reference: patent publication US9956187B2 (priority 2014, dated 2018)
Structures can show the parent of a compound that is named as a salt.

How the values were obtained:
human cloned NET = biological target: T1, human cloned NET (Homo sapiens, UniProt P23975); experiment: Norepinephrine reuptake assay in HEK 293 cells; type: cell-based; conditions: mean±SE
T1 construct: expressed in transfected cells
Method: (§1) In brief, Human Embryonic Kidney 293 cells were plated in Poly-L-Lys (PLL) coated 384-well black clear bottom cell culture plates in DMEM+1% dFBS, at a density of 15,000 cells per well in a total volume of 40 μl. The cells were incubated for a minimum of 6 hours before use in the assays. The medium was removed and 20 μL of assay buffer (20 mM HEPES, 1×HBSS, pH 7.40) was added, followed by 5 μL of 5× drug solutions. The plate was incubated at 37° C. for 30 min. After the incubation, 25 μL of dye solution was added and fluorescence intensity was measured after […] at 37° C., using FlexStation II (bottom read mode, Excitation at 440 nm, Emission at 520 nm with 510 nm cut-off) from the Molecular Devices. […] The half maximal inhibitory concentration were determined and expressed as pIC50 (pIC50=−log (IC50)).

morphine dependent rats [1] = experiment: Morphine withdrawal syndrome scoring
Method: (1) The same volumes of normal saline (NS) were received subcutaneously in the naïve group. All other interventional drugs are administered by intraperitoneal injection.

Sigma 1 [2] = biological target: T2, Sigma 1 (Homo sapiens, UniProt Q99720); experiment: Primary radioligand binding screen; set-up: expressed in transfected cells
Method: (§2) Evidence for interaction was based on the inhibition of the reference ligand-binding signal. […] Briefly, 50 μL aliquots of radioactive ligand (5 nM) were added to wells of a 96-well plate, which contained 25 μL of the reference or test ligands. We employed transfected cell lines expressing mainly human (unless otherwise specified) recombinant receptors, monoamine transporters, or ion channels for crude membrane preparation. Detailed information about our membrane preparation is well known in the art and can be obtained from publicly available protocol online. Crude membrane fractions containing the receptors were resuspended in standard binding buffer and 50 μL aliquots added to each well. The reactions were incubated at room temperature for 1.5 hours to allow for radioligand binding equilibration. Bound radioactivity was harvested by rapid filtration through a 0.3% polyethyleneimine-treated, 96-well filter mats using a 96-well Filtermate harvester. The dried filters were treated with melted scintillant and a Microbeta scintillation counter was utilized to measure the radioactivity retained on the filter.
Target sequence in this assay (Q99720 whole entry): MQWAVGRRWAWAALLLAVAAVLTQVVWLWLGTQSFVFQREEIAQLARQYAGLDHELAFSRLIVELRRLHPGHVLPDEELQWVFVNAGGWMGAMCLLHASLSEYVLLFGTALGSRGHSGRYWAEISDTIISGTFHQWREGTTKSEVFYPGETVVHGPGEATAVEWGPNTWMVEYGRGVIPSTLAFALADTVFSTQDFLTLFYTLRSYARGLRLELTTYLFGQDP

[3] = system: chronic constriction injury (CCI) rats; experiment: Thermal hyperalgesia, paw withdrawal latency in CCI model; type: in vivo, rat; conditions: 3 mg/kg IP daily, days 1-10 after CCI, vs NS group, P<0.05
Method: (§3) CCI procedures on the sciatic nerve of male SD rats were performed as previously described. Briefly, after rats were anesthetized by i.p. injection of sodium pentobarbital (40 mg/kg), the right sciatic nerve of the mid-thigh level was exposed. Chromic gut 4-0 was loosely tied around the nerve for 4 ligatures with about 1 mm between knots. The ligation was performed to just barely reduce the diameter of sciatic nerve. […] In the sham group, the sciatic nerve was exposed without ligation. The incisions of rats were closed in layers. After recovery from anesthesia, rats were housed individually in the clear plastic cages with soft bedding covered with 3-6 cm of sawdust.
(§4) Same volume of normal saline (2 ml) was injected in the other two groups at the same time.
The paw withdrawal latency (PWL) to radiant heat was used to evaluate thermal hyperalgesia for nociceptive response as previously described. Rats were placed in transparent plexiglass cage (23×18×13 cm) with a piece of 3-mm-thick glass floor and received heat radiation after acclimating to the environments for 30 minutes. […] A digital timer automatically measured the duration between the starting of heat and the paw withdrawal, which was considered as the PWL. The PWL was measured in 0.1 second and a maximum of 20 seconds exposure to radiation was set to avoid injury. […]

[4] = system: chronic constriction injury (CCI) rats; experiment: Tactile allodynia, paw withdrawal threshold in CCI model; type: in vivo, rat; conditions: 3 mg/kg IP daily, days 1-10 after CCI, vs NS group, P<0.05
Method: as §3, §4
The paw withdrawal threshold (PWT) was used to evaluate mechanical allodynia for nociceptive response with Von Frey filaments. The rats were placed in transparent plexiglass cage with a wire mesh floor. After acclimating to their environments for 30 minutes, each filament was applied perpendicularly to the plantar surface of the right hind paw. The end point was determined as paw withdrawal accompanied by biting, head turning and/or licking. The force (in gram, g) needed for this reaction was recorded. […]

kappa opioid receptor [5] = biological target: T3, kappa opioid receptor (Homo sapiens, UniProt P41145); type: biochemical; set-up: purchased Millipore (Billerica, Mass.); host or cells: Chem-5 mammalian cell line; conditions: ligand alone
Description: Membrane preparations of recombinant human kappa opioid receptor expressed in the mammalian cell line Chem-5 were obtained from Millipore (Billerica, Mass.). The effects of specific kappa opioid receptor ligands on the activation of the recombinant receptor were investigated by measuring G protein activation in vitro.
The assay reports the initial rates of activation of heterotrimeric G proteins (Gαii1β1γ2) on an agonist-bound receptor by measuring the accumulation of [^35S]-GTPγS (non-hydrolyzable analog of GTP) bound to the activated Gαi1 subunit. […] The G protein activation assay was conducted as follows (final concentrations in 50 μL reaction mixture are given in parentheses): the membrane sample was diluted into ice-cold 10 mM 3-(N-morpholino)propanesulfonic acid (MOPS) buffer to reach a protein concentration of 40 ng/μL. 10 μL of the diluted dispersion were dispensed into pre-siliconized glass tubes and mixed with the ligand in MOPS buffer containing 0.1% (w/v) BSA. Upon addition of a mixture of Gαi1 (100 nM) and Gβ1γ2 (500 nM), the tubes were incubated on ice for 30 minutes. The reaction was started by addition of MOPS buffer pH=7.5 (50 mM), EDTA (1 mM), MgCl2 (3 mM), GDP (4 μM), BSA (0.3% w/v), NaCl (100 mM), DTT (1 mM), and [^35S]-GTPγS (5 nM, 1250 Ci/mmol) followed by rapid transfer of the tubes to a water bath at 30° C. The incubation continued for 45 minutes. The reaction was terminated by addition of 2 mL of ice-cold stop solution, TNMg (20 mM Tris-HCl pH=8.0, 100 mM NaCl, and 25 mM MgCl2). The reaction mixture was rapidly filtered through nitrocellulose filters (Millipore). Filters were washed four times with 2 mL each of cold TNMg buffer, dried, placed in scintillation vials filled with ScintiSafe Econo F scintillation liquid (Fisher, Waltham, Mass.), and the radioactivity counted. Duplicate samples corresponding to every ligand concentration point were counted.

kappa opioid receptor [6] = biological target: T3, kappa opioid receptor; type: binding; set-up: expressed in transfected cells; conditions: mean±SE; read-out: Ki KOR
Method: The secondary binding assay was performed only when the inhibition in the primary screen was over 50%. A secondary binding assay was utilized to determine the binding affinity for the identified receptor.
50 μL of a crude membrane fraction of cells expressing the respective receptors were applied to each well. Reaction incubation, harvesting and radioactivity measurement from the primary assay were repeated. Affinity is expressed as pKi (−log Ki).

morphine dependent rats [7] = experiment: Astrocyte activation in nucleus accumbens; type: in vivo, rat
human cloned SERT = biological target: T4, human cloned SERT (Homo sapiens, UniProt P31645); experiment: Serotonin reuptake assay in HEK 293 cells; type: cell-based; conditions: mean±SE
T4 construct: expressed in transfected cells
Method: as §1

BZP Rat Brain Site = conditions: primary binding, dezocine 10 μM
Method: as §2

[8] = Solubility in 20% cyclodextrin by HPLC; type: physicochemical; conditions: aqueous with cosolvent or surfactant or cyclodextrin, thermodynamic from solid, room temperature
Description: It was filtered with 0.2 μm PTFE syringe filter after stirring for 24 hrs.

Sigma 1 [9] = biological target: T2, Sigma 1; experiment: Molecular target profiling; type: binding
Target sequence in this assay (Q99720 whole entry, species assumed): as the sequence (Q99720 whole entry) above

[10] = Solubilizing dezocine in formulations
Description: All further solutions were created at about pH 4. […] No higher concentrations were attempted with this formulation.

GABAA = experiment: Primary radioligand binding screen; set-up: species or system human; conditions: dezocine 10 μM
Method: as §2

T3 sequence (P41145 whole entry): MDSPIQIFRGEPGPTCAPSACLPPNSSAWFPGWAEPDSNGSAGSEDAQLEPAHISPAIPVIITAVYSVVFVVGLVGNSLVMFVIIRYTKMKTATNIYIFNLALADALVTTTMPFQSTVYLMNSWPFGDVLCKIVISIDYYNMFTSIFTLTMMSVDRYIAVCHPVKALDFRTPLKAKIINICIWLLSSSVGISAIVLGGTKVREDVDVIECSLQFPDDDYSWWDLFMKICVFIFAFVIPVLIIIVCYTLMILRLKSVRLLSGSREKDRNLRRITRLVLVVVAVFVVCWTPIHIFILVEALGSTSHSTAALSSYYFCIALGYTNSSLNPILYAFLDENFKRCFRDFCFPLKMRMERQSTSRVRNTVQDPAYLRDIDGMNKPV
T1 sequence (P23975 whole entry): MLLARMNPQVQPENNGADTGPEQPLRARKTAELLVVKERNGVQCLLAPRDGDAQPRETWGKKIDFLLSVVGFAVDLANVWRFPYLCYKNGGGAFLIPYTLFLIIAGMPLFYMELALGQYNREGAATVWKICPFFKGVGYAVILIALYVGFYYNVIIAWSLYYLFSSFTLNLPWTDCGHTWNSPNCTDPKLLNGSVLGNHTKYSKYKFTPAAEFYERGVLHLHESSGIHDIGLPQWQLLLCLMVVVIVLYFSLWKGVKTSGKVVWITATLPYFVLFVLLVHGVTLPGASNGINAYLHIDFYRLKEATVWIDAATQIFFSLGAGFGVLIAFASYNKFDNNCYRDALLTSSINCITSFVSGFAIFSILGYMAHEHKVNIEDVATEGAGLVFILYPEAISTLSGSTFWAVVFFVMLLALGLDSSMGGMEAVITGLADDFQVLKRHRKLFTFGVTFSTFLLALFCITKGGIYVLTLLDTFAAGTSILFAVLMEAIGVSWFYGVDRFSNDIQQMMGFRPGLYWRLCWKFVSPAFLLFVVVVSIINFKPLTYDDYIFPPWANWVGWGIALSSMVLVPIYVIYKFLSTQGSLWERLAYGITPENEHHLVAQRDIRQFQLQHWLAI
T4 sequence (P31645 whole entry): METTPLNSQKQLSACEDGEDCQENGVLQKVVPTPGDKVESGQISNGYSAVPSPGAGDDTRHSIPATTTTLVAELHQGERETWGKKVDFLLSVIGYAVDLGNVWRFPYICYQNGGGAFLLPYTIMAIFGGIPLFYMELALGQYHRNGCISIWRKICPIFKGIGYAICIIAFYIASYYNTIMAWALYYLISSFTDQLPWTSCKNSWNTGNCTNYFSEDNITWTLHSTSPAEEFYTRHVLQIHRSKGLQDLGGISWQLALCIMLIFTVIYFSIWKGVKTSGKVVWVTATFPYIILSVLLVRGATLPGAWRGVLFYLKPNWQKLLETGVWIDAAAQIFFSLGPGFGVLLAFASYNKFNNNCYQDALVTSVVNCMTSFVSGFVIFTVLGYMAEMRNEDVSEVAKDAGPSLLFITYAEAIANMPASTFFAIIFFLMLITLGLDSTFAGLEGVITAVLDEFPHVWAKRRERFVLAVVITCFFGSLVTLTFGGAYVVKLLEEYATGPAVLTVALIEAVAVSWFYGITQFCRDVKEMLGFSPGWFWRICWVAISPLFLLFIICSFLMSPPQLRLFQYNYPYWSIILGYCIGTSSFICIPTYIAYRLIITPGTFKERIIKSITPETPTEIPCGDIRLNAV

C[C@@]12CCCCC[C@@H](Cc3ccc(O)cc31)[C@@H]2N [Dezocine, (−)-13β-amino-5,6,7,8,9,10,11,12-octahydro-5α-methyl-5,11-methanobenxocyclodecen-31-ol, hydrobromide]
pIC50 at NET (norepinephrine reuptake) (human cloned NET): 5.68±0.11 | total score of morphine withdrawal symptoms (morphine dependent rats [1]; days 1-7, vs DMSO group, n=12, P<0.01 (FIG. 18)): alleviated the morphine withdrawal syndrome | total score of morphine withdrawal symptoms (morphine dependent rats [1]; dezocine 5 mg/kg IP, days 1-7, vs NS group, P<0.01): decreased significantly | inhibition at 10 µM (Sigma 1 [2]): 21.7% | paw withdrawal latency (PWL) [3]: significantly improved | paw withdrawal threshold (PWT) [4]: increased markedly | G protein activation in the presence of kappa receptor (kappa opioid receptor [5]): no significant G protein activation | Ki (kappa opioid receptor [6]): 0.0319 ± 0.0019 µM | astrocyte activation in nucleus accumbens (morphine dependent rats [7]): significantly inhibited | pIC50 of SERT (serotonin reuptake) (human cloned SERT): 5.86±0.17 | % inhibition (BZP Rat Brain Site): 11.5% | solubility at 24 h ([8]; 20% 2-Hydroxypropyl-β-cyclodextrin (HPBCD)): 18 ± 1 mg/mL | solubility at 24 h ([8]; 20% 2-Hydroxypropyl-γ-cyclodextrin (HPGCD)): 24 ± 1 mg/mL | interaction with sigma 1 receptor (Sigma 1 [9]): interact with sigma 1 receptor | Maximum Dezocine Concentration ([10]; 31% Propylene Glycol, 1% Lactic Acid, highest concentration attempted): 30 mg/mL | solubility ([10]; 31% propylene glycol, 6% PVOH solution, pH 4, aqueous with cosolvent or surfactant or cyclodextrin): 10 mg/mL | Maximum Dezocine Concentration ([10]; 50% Propylene Glycol): 2 mg/mL | Maximum Dezocine Concentration ([10]; Ethanol (200-proof), highest concentration attempted): 1 mg/mL | Maximum Dezocine Concentration ([10]; Propylene Glycol (pure)): 10 mg/mL | Maximum Dezocine Concentration ([10]; Water): insoluble | solubility ([10]; water): < 1 mg/mL | % inhibition (GABAA): −10.1%
